{"source": "patent US20230096602A1", "about": "“TETRAHYDROCYCLOPENTA[B]INDOLE COMPOUNDS FOR TREATMENT OF RENAL DISEASE” (Eirgen Pharma Ltd., priority 2020, published 2023)", "molecules": {"B1": {"name": "PTH: PTH 10 comparator group in the delayed ORX rat model, Table 7 (peptide, UniProt P01270 32-115, looked up)", "Parathyroid hormone": "SVSEIQLMHNLGKHLNSMERVEWLRKKLQDVHNFVALGAPLAPRDAGSQRPRKKEDNVLVESHEKSLGEADKADVNVLTKAKSQ", "modifications": "Parathyroid hormone"}}, "key": {"[1]": {"tested_on": "orchidectomized (ORX) rats", "assay": "Testosterone induced prostate and seminal vesicle growth in delayed ORX rat model", "format": "in vivo", "conditions": "for seminal vesicle wet weights Abs(Dif)-LSD / prostate weights Abs(Dif)-LSD: Dunnett", "from_the_text": "(§1) Orchidectomized (ORX) and sham-operated Wistar male rats were used (orchidectomized at 8 weeks of age and allowed to waste for 4 weeks). […] Rats were randomized and placed into treatment groups (n=6) based on body weight. Route of administration for all groups except testosterone enanthate (TE was given sub-cutaneously) was oral. At the end of 2 weeks of daily rats were euthanized, weighed & tissue harvested. Levator ani, prostates, and seminal vesicles were collected from each animal. Results are plotted as means±SE."}, "[2]": {"tested_on": "clinical study subjects", "assay": "Clinical safety assessment across studies", "format": "in vivo, human", "conditions": "phase 2 study"}, "[3]": {"tested_on": "patients with androgen deficiency", "assay": "Clinical studies in patients with androgen deficiency", "format": "in vivo, human", "conditions": "any dose level (up to 75 mg doses)", "from_the_text": "The exact effect of this decrease in testosterone levels on androgen related anabolic and prostate effects is not known, but may be dependent on the base levels of testosterone."}, "[4]": {"tested_on": "orchidectomized (ORX) rats", "assay": "Prostate and seminal vesicle weight in ORX rat model", "from_the_text": "as §1"}, "[5]": {"assay": "Human PK, single and repeated doses", "format": "in vivo", "from_the_text": "The human pharmacokinetics (PK) of OPK-88004 was investigated following single and repeated doses. Following tmax, OPK-88004 concentrations appear to decline in a biexponential fashion characterized by a short distribution phase and a long terminal phase. Exposure appears to increase approximately dose proportionally in the clinical dosing range. Steady state was achieved within 28 days of dosing. […] These therapeutic benefits of more controlled exposure may result in improved LBM and physical/muscle strength preservation, physical function improvement and muscle wasting prevention. OPK-88004 bioexponential PK profile is important for the optimization of side effect benefit/risk ratio in special populations including dialysis patients."}, "[6]": {"tested_on": "healthy subjects", "assay": "Study GPBA QTcF concentration-response analysis", "format": "in vivo, human", "conditions": "concentrations found with doses of 250 mg or greater", "method": "At TT701 concentrations found with doses of 250 mg or greater, the mean QTcF prolongation was greater than 10 msec. The risk for clinically significant QT prolongation at doses <250 mg can be excluded."}, "[7]": {"tested_on": "dog prostate", "assay": "Dog toxicology: prostate weight and atrophy", "format": "in vivo"}, "[8]": {"tested_on": "orchidectomized (ORX) rats", "assay": "Bone effects in osteopenic ORX rat model", "conditions": "in vivo"}, "[9]": {"tested_on": "rat uterus", "assay": "Rat uterine risk", "format": "in vivo"}, "[10]": {"assay": "Margin of safety (AUC), dog", "format": "in vivo"}, "[11]": {"tested_on": "healthy subjects", "assay": "Study GPBC multiple-dose 28 days", "format": "in vivo, human", "conditions": "1 mg to 75 mg daily dose for 28 days"}, "[12]": {"tested_on": "LnCAP cells", "assay": "LnCAP gene expression", "format": "cell-based, human", "conditions": "CLUSTERIN"}, "[13]": {"tested_on": "ER, GR, PR MR", "assay": "Binding to other nuclear hormone receptors", "conditions": "selectivity"}, "[14]": {"tested_on": "patients with ED who had an incomplete response to tadalafil", "assay": "Study GPEC phase 2, 12 weeks", "format": "in vivo, human", "conditions": "for Change in Fat Mass (%) (week 12) / Change in Lean Body Mass (%) (week 12): 5 mg", "from_the_text": "The Phase 2 Study for ED also included exploratory measures for lower extremity muscle strength and power, LBM and fat mass."}, "[15]": {"tested_on": "healthy subjects", "conditions": "healthy volunteers, any time point or dose; data of WO 2016040234; cited from earlier work"}, "[16]": {"tested_on": "male subjects with LUTS secondary to BPH", "assay": "Study SAR-202 phase 2, 16 weeks", "format": "in vivo, human"}, "[17]": {"assay": "Margin of safety (AUC), cat as printed", "format": "in vivo", "conditions": "cat (so in the source)"}, "[18]": {"tested_on": "orchidectomized (ORX) rats", "assay": "Levator ani muscle in delayed ORX rat model", "format": "in vivo", "conditions": "for levator ani W/BW Mean: delayed ORX rat", "from_the_text": "Results are plotted as means±SE.\nFollowing the androgen deficiency in the ORX model, the Levator ani- and bulbocavernous muscle weights decreased in size."}, "[19]": {"conditions": "ORX + TE, 1 mg/kg/d + Example 1, 3 mg/kg/d vs ORX + TE"}, "[20]": {"conditions": "ORX + TE, 1 mg/kg/d + Example 1, 10 mg/kg/d vs ORX + TE"}, "[21]": {"conditions": "ORX + TE, 1 mg/kg/d + Example 1, 30 mg/kg/d vs ORX + TE"}, "[22]": {"conditions": "baseline testosterone <340 ng/dL"}, "[23]": {"conditions": "baseline testosterone ≥340 ng/dL"}}}
{"molecule": "CCCCCCC(=O)O[C@H]1CC[C@H]2[C@@H]3CCC4=CC(=O)CC[C@]4(C)[C@H]3CC[C@]12C", "note": "[Testosterone Enanthate, reference compound]", "values": [{"measurement": "prostate weight and seminal vesical weight", "setting": "[1]; orchidectomized rats, 1 mg/k/d alone, 2 weeks", "value": "increase"}]}
{"molecule": "CC(C)OC(=O)N[C@H]1Cc2c(n(Cc3ccccn3)c3ccc(C#N)cc23)C1", "note": "[compound of Formula II, (S)-(7-cyano-4-pyridin-2-ylmethyl-1,2,3,4-tetrahydro-cyclopenta[b]indol-2-yl)-carbamic acid isopropyl ester]", "values": [{"measurement": "transient abnormal AST or ALT level", "setting": "[2]; one subject", "value": "> 3", "unit": "×ULN"}, {"measurement": "transient abnormal AST or ALT level", "setting": "[2]; two subjects", "value": "> 2", "unit": "×ULN"}, {"measurement": "PSA", "setting": "[3]", "value": "No increases"}, {"measurement": "prostate or seminal vesical weights", "setting": "[4]; delayed ORX rats, 2 or 8 weeks, increasing doses up to 20-30 mg/kg", "value": "no effect"}, {"measurement": "changes in the prostate", "setting": "[4]; orchidectomized rats, 30 mg/kg, highest dose examined", "value": "did not induce changes"}, {"measurement": "Rat SV/Prost risk mgs/kg", "setting": "[4]; rat", "value": ">30", "unit": "mpk"}, {"measurement": "Accumulation with multiple dosing", "setting": "[5]; in vivo", "value": "up to 2.5 fold"}, {"measurement": "time to steady state", "setting": "[5]; repeated dosing", "value": "≤ 28", "unit": "days"}, {"measurement": "mean QTcF prolongation", "setting": "[6]", "value": "greater than 10 msec"}, {"measurement": "decreases of prostate weight", "setting": "[7]; dogs, by 3 months (so in the source)", "value": "60-75%"}, {"measurement": "progressive decrease in prostate size", "setting": "[7]; normal dogs, six-month treatment period", "value": 60, "unit": "%"}, {"measurement": "Bone Eff (BM)", "setting": "[8]", "value": 2, "unit": "mpk"}, {"measurement": "Rat uterine risk", "setting": "[9]", "value": 20, "unit": "mpk"}, {"measurement": "seminal vesicle wet weights Abs(Dif)-LSD", "setting": "[1]; ORX + Example 1, 10 mg/kg/d (no TE) vs ORX + TE", "value": 1.411}, {"measurement": "prostate weights Abs(Dif)-LSD", "setting": "[1]; [19]", "value": "−0.11"}, {"measurement": "seminal vesicle wet weights Abs(Dif)-LSD", "setting": "[1]; [19]", "value": "−0.34"}, {"measurement": "prostate weights Abs(Dif)-LSD", "setting": "[1]; [20]", "value": 0.036}, {"measurement": "seminal vesicle wet weights Abs(Dif)-LSD", "setting": "[1]; [20]", "value": 0.078}, {"measurement": "prostate weights Abs(Dif)-LSD", "setting": "[1]; [21]", "value": 0.025}, {"measurement": "seminal vesicle wet weights Abs(Dif)-LSD", "setting": "[1]; [21]", "value": 0.536}, {"measurement": "prostate weight and seminal vesical weights normalized to body weight", "setting": "[1]; TE 1 mg/kg/d + 3, 10 and 30 mg/kg/d, 2 weeks, compared to TE alone", "value": "decreasing"}, {"measurement": "MOS (AUC)", "setting": "[10]", "value": 28, "unit": "X"}, {"measurement": "PSA test, effect on the prostate", "setting": "[11]", "value": "neutral to negative effect"}, {"measurement": "EC50", "setting": "[12]", "value": "> 100", "unit": "nM"}, {"measurement": "binding affinity for hAR compared to other nuclear hormone receptors", "setting": "[13]", "value": "> 500", "unit": "fold"}, {"measurement": "Change in Fat Mass (%) (week 12)", "setting": "[14]; [22]", "value": "−1.85", "unit": "%"}, {"measurement": "Change in Lean Body Mass (%) (week 12)", "setting": "[14]; [22]", "value": 1.60, "unit": "%"}, {"measurement": "Change in Fat Mass (%) (week 12)", "setting": "[14]; [23]", "value": "−0.95", "unit": "%"}, {"measurement": "Change in Lean Body Mass (%) (week 12)", "setting": "[14]; [23]", "value": 0.88, "unit": "%"}, {"measurement": "Hematocrit", "setting": "[14]; 12 weeks (FIG. 11)", "value": "no change"}, {"measurement": "prostate specific antigen (PSA) levels, changes from baseline vs placebo", "setting": "[15]", "value": "no significant changes"}, {"measurement": "Change in Fat mass (kg) (week 16)", "setting": "[16]; 15 mg, 16 weeks", "value": -1.47, "unit": "kg"}, {"measurement": "Change in Fat mass (kg) (week 16)", "setting": "[16]; 25 mg, 16 weeks", "value": -1.49, "unit": "kg"}, {"measurement": "Change in Lean Body Mass (kg) (week 16)", "setting": "[16]; 25 mg, 16 weeks, listed as OPK-88008", "value": 1.96, "unit": "kg"}, {"measurement": "Change in Prostate Specific Antigen (week 16 to baseline)", "setting": "[16]; 25 mg, listed as OPK-88008", "value": "−15.44 (p = 0.006)"}, {"measurement": "MOS (AUC)", "setting": "[17]", "value": 71, "unit": "X"}, {"measurement": "levator ani W/BW Mean", "setting": "[18]; 8 weeks, dose 1", "value": 0.2749, "unit": "mg/g"}, {"measurement": "levator ani W/BW Mean", "setting": "[18]; 8 weeks, dose 3", "value": 0.2575, "unit": "mg/g"}, {"measurement": "levator ani W/BW Mean", "setting": "[18]; 8 weeks, dose 10", "value": 0.3237, "unit": "mg/g"}, {"measurement": "levator ani W/BW Mean", "setting": "[18]; 8 weeks, dose 20", "value": 0.325, "unit": "mg/g"}, {"measurement": "Muscle LA ED mg/kg", "setting": "[18]; rat", "value": 3, "unit": "mpk"}]}
{"molecule": "B1", "values": [{"measurement": "levator ani W/BW Mean", "setting": "[18]; PTH 10 (head: ug/kg/d)", "value": 0.1665, "unit": "mg/g"}]}
